Laboratory results from patent publication US20120232107A1, “NON-PEPTIDE ANTAGONISTS OF GASTRIN RELEASING PEPTIDE” (The Government of the United States of America as …, priority 2003, published 2012).
Entries after “also recorded” stand apart in the source; their conditions may differ. Read-outs that look alike come from different tables or passages of the source. One block for each compound: values may come before it. Ends that are not written are not given here.

Assays:
[1] = system: normotensive Lewis/ssncr rats; experiment: Measurement of blood pressure in vivo, normotensive Lewis/ssncr rats; set-up: species or system rat; conditions: for Biological activity (blood pressure): AM antagonists, 20 nmols/Kg iv; for Biological activity: negative modulators of AM
Method: (§1) AM is a potent and long-lasting vasodilator Therefore it was expected that AM antagonists would elevate blood pressure and AM superagonists would decrease it further. In consequence, suspected antagonists were analyzed in normotensive rats (10-week-old Lewis/ssncr males, SAIC, Frederick, Md.) and suspected superagonists in hypertensive animals (10-week-old SHR males, Taconic Farms, Germantown, N.Y.).
(§2) Animals were anaesthetized with 3% halothane, intubated, and maintained with 1% halothane in 70% nitrous oxide and 30% oxygen (VMS Anesthesia Machine, Matrx, Medical Inc., Orchard Park, N.Y.) at 82 strokes/min. Rectal temperature was monitored through the experiment. A PE50 catheter was placed on the right femoral artery and arterial blood pressure was recorded through a P23XL transducer (Grass Instruments, Quincy, Mass.). Peptides and small molecules were injected into the right femoral vein through another catheter. All procedures were performed under a protocol approved by the National Institutes of Health.

AM [2] = target: T1, AM (Homo sapiens, UniProt P35318); experiment: cAMP analysis for AM in Rat2 cells; assay type: cell-based, rat; conditions: for variation of intracellular cAMP levels: Rat2 cells; for Action on second messengers: peptide AM, cAMP induced by 100 nM AM in Rat2 cells; for Response to second messengers: peptide target AM
T1 construct: AM is a 52 amino acid peptide; purchased Peninsula (S. Carlos, Calif.); host or cells: synthetic peptide
T1 sequence (P35318 95-146): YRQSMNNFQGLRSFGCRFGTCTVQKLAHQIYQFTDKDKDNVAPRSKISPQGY
Method: This cell line was obtained from the American Tissue Culture Collection (ATCC, Manassas, Va.) and maintained in RPMI-1640 supplemented with 10% fetal bovine serum (FBS, Invitrogen, Carlsbad, Calif.). Cells were seeded in 24-well plates at 2×10^4 cells/well and incubated at 37° C. in 5% CO2 until they reached 80% confluency. Before the assay, cells were incubated for 15 min in TIS medium (RPMI-1640 plus 10 μg/ml transferrin, 10 μg/ml insulin, and 50 nM sodium selenite) containing 1% BSA, 1 mg/ml bacitracin, and 100 μM isobutylmethylxanthine. Peptides and small molecules were applied in the same medium for 5 min at the indicated concentrations in a volume of 250 μl. The reaction was terminated by adding an equal volume of ice-cold ethanol. cAMP contents were measured using the Biotrac cAMP radioimmunoassay (Amersham Biosciences, Piscataway, N.J.), as described (Pio et al. (2001) J. Biol. Chem. 276, 12292-12300).

AM [3] = target: T1, AM; experiment: Surface plasmon resonance binding to immobilized AM; conditions: for Binding to AM kd: kinetic dissociation constant; for kon: read-out: Binding to AM ka; for Binding to AM KA: thermodynamic association constant
Method: Characterization of the binding between AM and the small molecules was performed immobilizing 3 μg of AM on a CM5 sensor chip by N-hydroxysuccinimide activation, followed by covalent amino coupling of the peptide to the surface, using BIAcore 3000 (Piscataway, N.J.). The remaining free surface was blocked with 1 mM ethanolamine and the matrix washed with 0.5 M NaCl solution and then re-equilibrated with binding buffer (1:200 DMSO in PBS). Eight different dilutions of each small molecule were prepared in binding buffer with concentrations ranging from 0 to 10 μM and injected from low to high concentration. Each injection was followed by a matrix regeneration step. Mass transfer control experiments were performed by injecting the same concentration of each small molecule at different flow rates (5, 15, and 75 μl/min). The data were then fitted to several models for a kinetic analysis and the binding constants calculated. The best fittings were obtained with a simple 1:1 Langmuir model.

GRP [4] = target: T2, GRP (Homo sapiens, UniProt P07492); experiment: Ca2+ analysis for GRP in H-1299 cells; assay type: cell-based
T2 construct: GRP is a 27 amino acid peptide; purchased Peninsula (S. Carlos, Calif.); host or cells: synthetic peptide
T2 sequence (P07492 24-50 limits assumed): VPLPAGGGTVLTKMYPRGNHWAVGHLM
Method: After washing two times with TIS, 2 ml of cell suspension were placed in a Delta PTI Scan 1 spectrofluorimeter (Photon Technology International, South Brunswick, N.J.) equipped with a stir bar and water bath (37° C.). Fluorescence was measured at dual excitation wavelengths of 340 nm and 380 nm using an emission wavelength of 510 nm.

GRP [5] = target: T2, GRP; experiment: IP3 analysis for GRP in H-1299 cells; assay type: cell-based; conditions: for Action on second messengers: peptide GRP, IP3 or Ca2+ levels induced by GRP in H1299 cells
Method: This cell line was obtained from ATCC and cultured as the other cell lines. The signal transduction pathway for GRP includes elevation of intracellular levels of IP3 and Ca^2+ and these were investigated as previously shown (Ryan et al. (1998) J. Biol. Chem., 273, 13613-13624). Briefly, to quantify IP3, contents cells were subcultured into 24-well plates (5×10^4 cells/well). After a 24 h incubation period at 37° C., the cells were incubated with 3 μCi/ml myo-[^3H]inositol in growth medium supplemented with 2% FBS for an additional 24 h. Incubation volumes were 500 μl of assay buffer/well containing 135 mM sodium chloride, 20 mM HEPES (pH 7.4), 2 mM calcium chloride, 1.2 mM magnesium sulfate, 1 mM EGTA, 20 mM lithium chloride, 11.1 mM glucose, and 0.05% BSA (v/v) with or without any of the molecules studied at 37° C. for 30 min. Experiments were terminated with 1 ml of ice-cold hydrochloric acid/methanol (0.1%, v/v). [^3H]IP3 was eluted off Dowex AG-1-X8 anion exchange columns with 2 ml of 1 mM ammonium formate and 100 mM formic acid. Each of the eluates was collected and mixed with 10 ml of scintillation mixture (BioSafe, Research Products International Corp, Mount Prospect, Ill.), and the radioactivity was measured in a LS 3801 β counter (Beckman, Somerset, N.J.).

hypertensive SHR rats = experiment: Measurement of blood pressure in vivo, hypertensive SHR rats; set-up: species or system rat; conditions: for decrease in blood pressure from basal levels: 20 nmols/Kg intravenous; for decrease in blood pressure from basal levels / Biological activity (blood pressure): hypertensive rats; for Biological activity (blood pressure): AM superagonists, 20 nmols/Kg iv
Method: as §1, §2

AM [6] = target: T1, AM; experiment: Primary screening: interference with binding of AM to its blocking monoclonal antibody; conditions: 1 μM compound
Method: Human synthetic AM was solid-phased into PVC 96-well plates (Fisher Scientific, Pittsburgh, Pa.) by incubating 50 μl of AM (at 1 nmols/μl) per well for 1 h. To solid-phase […] into the plates, these were previously treated with glutaraldehyde as described (Kasprzyk et al. (1988) Anal. Biochem. 174, 224-234). After discarding the coating solution, the plates were blocked with 200 μl per well of 1% bovine serum albumin (BSA) in phosphate buffer saline (PBS). After 1 h, this solution was aspirated off and 50 μl containing 1 μM of one of the compounds of the library in PBS was added per well. Immediately after, 50 μl of labeled antibody (at 2.4 μg/ml) were added on each well and the solution was allowed to react for 1 h. Following 3 thorough washes with 1% BSA in PBS to remove the unbound antibodies, peroxidase activity was developed using o-phenylenediamine dihydrochloride (Sigma) as a substrate. The reaction product was quantified with a plate reader (Spectra Rainbow, Tecan, Austria) at 450 nm. Each plate contained several internal controls including wells without any coating that are used to calculate non-specific binding; wells where no potential antagonists were added, which provided maximum binding; and wells where the unlabeled antibody (at 1.2 μg/ml) substituted the small molecule, as a positive inhibition control (FIG. 1B). […]

GRP-induced angiogenesis = experiment: Directed in vivo angiogenesis assay (DIVAA); set-up: species or system mice; conditions: 1 nM GRP
Method: Analysis and quantitation of angiogenesis was done using DIVAA as previously described (Martinez et al. (2002) J Natl Cancer Inst 94, 1226-37). Briefly, 10 mm long surgical-grade silicone tubes with only one end open (angioreactors) were filled with 20 μl of matrigel alone or mixed with GRP and the small molecules at the indicated concentrations. After the matrigel solidified, the angioreactors were implanted into the dorsal flanks of athymic nude mice (NCI colony). After 11 days, the mice were injected iv with 25 mg/ml FITC-dextran (100 μl/mouse, Sigma) 20 min before removing angioreactors. Quantitation of neovascularization in the angioreactors was determined as the amount of fluorescence trapped in the implants and was measured in a HP Spectrophotometer (Perkin Elmer).

[7] = system: Bovine retinal microvascular endothelial cells; experiment: Cord formation assay in Matrigel; assay type: cell-based; conditions: 5 nM GRP alone
Method: Formation of tube-like structures was performed as described in Kubota et al. (1988) J. Cell Biol. 107, 1589-1598; Nam et al. (2003) Phytother. Res. 17, 107-111; and Macpherson et al. (2003) Mol Cancer Ther 2, 845-54. Briefly, a thin layer of Matrigel (Collaborative Biomedical Products, Bedford, Mass.) was allowed to polymerize at the bottom of 24-well plates. […] After an overnight incubation at 37° C., the tubular structures were photographed (3 pictures per well at 10×) and the number of knots per photographic field were counted as a measure of lattice complexity.

[8] = unit inferred, read-out: calculated KD

Compound: CCN1CCC(O)(C(C(=O)O)c2ccccc2)CC1 (stereo not drawn) [compound 16311]
elevation in blood pressure, difference from basal levels ([1]; 20 nmols/Kg intravenous, normotensive rats): 127±47 mm Hg | Biological activity (blood pressure) ([1]; normotensive rats): Elevates blood | Biological activity [1]: Vasodilator | variation of intracellular cAMP levels (AM [2]; in the presence of 100 nM AM): most active antagonists | Action on second messengers (AM [2]): Antagonists | Response to second messengers (AM [2]): Neg. modul. | Binding to AM kd (AM [3]): 1.02e-05 s⁻¹ | kon (AM [3]): 1550 M⁻¹ s⁻¹ | Binding to AM KA (AM [3]): 1.52e+08 M⁻¹ | Kd (AM [3]; [8]): 6.56 nM

Compound: CCN(CC)CCC(O)(Cc1ccccc1)C(C(=O)O)c1ccccc1 (stereo not drawn) [compound 50161]
variation of intracellular cAMP levels (AM [2]; in the presence of 100 nM AM): most active antagonists | Action on second messengers (AM [2]): Antagonists

Ca2+ response elicited by 1 nM GRP (GRP [4]; H1299 cells pre-exposed to compound (1 min)): dramatically reduces | Action on second messengers (GRP [5]): Antagonists | Response to second messengers (GRP [5]; peptide target GRP): Neg. modul. | Binding to AM (AM [3]; immobilized AM): not to bind; also recorded: No binding
Compound: Oc1c[n+](CC[n+]2cc(O)on2)no1 [compound 54671]

Compound: CS(=O)(=O)OC1CN2CCC1CC2 (stereo not drawn) [compound 79422]
variation of intracellular cAMP levels (AM [2]; in the presence of 100 nM AM): antagonist | Action on second messengers (AM [2]): Antagonists

Compound: OC(COc1ccccc1)CN1CCCCC1 (stereo not drawn) [compound 89435]
Biological activity (blood pressure) ([1]; normotensive rats): Elevates blood | Biological activity [1]: Vasodilator | variation of intracellular cAMP levels (AM [2]; in the presence of 100 nM AM): most active antagonists | Action on second messengers (AM [2]): Antagonists | Response to second messengers (AM [2]): Neg. modul. | Binding to AM kd (AM [3]): 0.000871 s⁻¹ | kon (AM [3]): 1020 M⁻¹ s⁻¹ | Binding to AM KA (AM [3]): 1.18e+06 M⁻¹ | Kd (AM [3]; thermodynamic dissociation constant, read-out: Binding to AM KD): 851 nM

Compound: OCCCN=C1CCCCC1 [compound 128911]
Action on second messengers (AM [2]): Superagonists | Response to second messengers (AM [2]): Posit. modul. | decrease in blood pressure from basal levels (hypertensive SHR rats): 62±21 mm Hg | Biological activity (blood pressure) (hypertensive SHR rats): Reduces blood | Biological activity (hypertensive SHR rats; positive modulator of AM): Vasopressor | Binding to AM kd (AM [3]): 0.000892 s⁻¹ | kon (AM [3]): 304 M⁻¹ s⁻¹ | Binding to AM KA (AM [3]): 341000 M⁻¹ | Kd (AM [3]; [8]): 2930 nM

Compound: Nc1nc(=O)c2[nH]cnc2n1O [compound 145425]
Action on second messengers (AM [2]): Superagonists | decrease in blood pressure from basal levels (hypertensive SHR rats): 55±24 mm Hg | Biological activity (blood pressure) (hypertensive SHR rats): Reduces blood

Compound: O=NN(Cc1ccc(Cl)cc1)C(C(=O)O)c1ccccc1 (stereo not drawn) [compound 372874]
Action on second messengers (GRP [5]): Superagonist

Compound: Nn1c(CCCCCCCCc2nnc(COc3ccc4ccccc4c3O)n2N)nnc1COc1ccc2ccccc2c1O [compound 697162]
Action on second messengers (AM [2]): Superagonists

Compound: c1ccc(Nn2c(CCCCCCCCc3nnc(COc4ccccc4)n3Nc3ccccc3)nnc2COc2ccccc2)cc1 [compound 697165]
competition with labeled blocking monoclonal antibody for AM-coated plate (AM [6]): successful competitors | dose dependence of cAMP elevation (AM [2]; in the presence of 100 nM AM): dose-dependent elevation of cAMP | variation of intracellular cAMP levels (AM [2]; in the presence of 100 nM AM): superagonist | Action on second messengers (AM [2]): Superagonists

intracellular Ca2+ (GRP [4]; 1 nM GRP alone, H1299 cells): marked elevation
Compound: GRP: Synthetic human gastrin releasing peptide, 27 amino acid peptide hormone (VPLPAGGGTVLTKMYPRGNHWAVGHLM; ends and bridges not checked; UniProt P07492 24-50, looked up) [reference compound]
angiogenic potential in vivo (GRP-induced angiogenesis): exhibits angiogenic potential in vivo | number of knots per photographic field [7]: 37±5
